Reference: patent US9617264B2, “2,7-diazaspiro[3.5]nonane compounds” (REMYND NV, priority 2014, dated 2017)
pEC50: −log10 of the molar value.

Columns and labels:
INS-1E cells = assay: Cytokine-induced apoptosis (caspase-3/7 activation, Caspase-Glo 3/7) in INS-1E rat insulinoma cells; type: cell-based; settings: cytokine mix (IFN-γ, IL-1, TNF-α), 24 hours, caspase 3/7 activity, read-out: CYT EC50
Description: The INS-1E cell line, a rat insulinoma cell line, has been characterized extensively. INS-1E cells respond to glucose by secreting insulin and, unlike most other immortalized n-cell lines, they do this in a consistent manner over time. The cells are sensitive to hyperglycemia-, free fatty acid (FFA)-, and cytokine-induced stress. Prolonged stress ultimately leads to induction of apoptotic pathways and, if stress is not counter-acted, to apoptosis. Caspase-3 and -7 play a central role downstream where various apoptotic pathways merge. As such, activation (i.e. cleavage) of these caspases forms a relevant primary read-out to evaluate protective activity of compounds against stress-induced apoptosis.
To evaluate the efficacy of different compounds to prevent induction of apoptosis, an in vitro screen was developed in which INS-1E cells were exposed to a cytokine mix (IFN-γ, 5 ng/ml; IL-1, 20 pg/ml; TNF-α, 0.25 ng/ml). The degree of induction of apoptosis was evaluated using a substrate for cleaved caspase-3 and -7, i.e. a proluminescent caspase-3/7 DEVD aminoluciferin substrate with a thermostable luciferase (Caspase-Glo® 3/7 assay; Promega, cat. G8092).
On day 0, INS-1E cells were plated in a white-walled 96-well microplate (Greiner, cat. 655098) at 20,000 cells per well in 100 μl complete medium (RPMI containing 11 mM glucose supplemented with 5% FCS, 100 IU/ml penicillin, 100 μg/ml streptomycin, 10 mM HEPES, 1 mM Sodium Pyruvate and 50 μM 2-Mercapto-ethanol). On day 2, 100 μl medium containing cytokines and compound dissolved in DMSO was added to the cells. Wells without cytokines containing DMSO and wells with cytokines and DMSO were included to evaluate the degree of caspase 3/7 activation by the cytokine mix. After 24 hours exposure to cytokines and/or compound, Caspase-Glo® 3/7 reagent was added to the cells and caspase activity was determined by measuring luminescence.
To evaluate compound efficacy, the “toxicity window” was calculated by subtracting caspase activity of wells without stressor from activity of wells with stressor but without compound. The amount of caspase activity in the latter wells was normalized to 1 and used as reference. Subsequently, caspase activity in the wells with stressor and varying concentrations of compound was calculated relative to the wells without compound. Plotting caspase activity vs the log 10 of the concentration of compound permitted calculation of the EC50 values for the compounds which typically lied between 0.0001 and 10 μM. Compounds with an EC50<10 μM were considered active.

M17_3SYN cells = assay: Paraquat-induced cytotoxicity (LDH) in α-synuclein over-expressing M17_3SYN neuroblastoma cells; type: cell-based; settings: Homo sapiens, Neuroblastoma cell, 48 h, 6 mM Paraquat, 2 days, LDH toxicity inhibition, read-out: SYN EC50
Summary of the method: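 Human BE-M17 neuroblastoma cells stably overexpressing wild-type human α-synuclein were challenged with 6 mM paraquat (final) for 2 days at 37° C in the presence of graded compound concentrations. Cytotoxicity was measured as released LDH relative to total LDH, and EC50 was derived from dose-inhibition curves.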

db/db mice = assay: In vivo evaluation in db/db mice (type 2 diabetes model)
Description: For in vivo evaluation of compound efficacy, male BKS.Cg-+Leprdb/Leprdb/OlaHsd mice (db/db mice—Harlan) were used. The db/db phenotype results from a mutation in the leptin receptor gene, leading to a splice variant (Chen, Charlat et al. 1996; Lee, Proenca et al. 1996). The development of type 2 diabetes in db/db mice is associated with reduced insulin levels due to progressive β-cell failure following an initial period of hypersecretion of insulin. Since these mice develop type 2 diabetes in a manner related to pathology development in humans, and the model is accepted as in vivo model for evaluation of novel anti-diabetic treatments by the Food and Drug Administration (FDA, US), it is a highly relevant model for testing candidate drugs for efficacy.
Compounds were administered intraperitoneal (IP) or oral (PO) at a dose of maximally 50 mg/kg. Mice were subjected to metabolic analysis weekly or bi-weekly. These tests included but were not limited to determination of fasting (5 hrs) and non-fasting blood glucose levels, plasma insulin levels, % glycated hemoglobin (HbA1c) levels, glucose tolerance test and insulin sensitivity test.
Treatment with Cmpd045 at 15 mg/kg PO decreased body weight (FIG. 1A).

SMILES	pEC50 (INS-1E cells)	pEC50 (M17_3SYN cells)	body weight (db/db mice; 15 mg/kg PO, non-fasted body weight, FIG. 1A)	Fasted blood glucose levels (db/db mice; fasted, FIG. 1B)	% HbA1c levels (db/db mice; treated for 4 weeks, FIG. 1C)
COc1ccc(S(=O)(=O)N2CCC3(CC2)CN(C(=O)C(C)(C)c2cccc(Cl)c2)C3)cc1 [Cmpd030, 2-(3-Chlorophenyl)-1-(7-((4-methoxyphenyl)sulfonyl)-2,7-diazaspiro[3.5]nonan-2-yl)-2-methylpropan-1-one]	6.87	8.30	–	–	–
COc1ccc(S(=O)(=O)N2CCC3(CC2)CN(c2nc(CC(F)(F)F)ns2)C3)cc1 [Cmpd031, 5-(7-((4-Methoxyphenyl)sulfonyl)-2,7-diazaspiro[3.5]nonan-2-yl)-3-(2,2,2-trifluoroethyl)-1,2,4-thiadiazole]	6.83	6.92	–	–	–
CC(=O)Nc1ccc(S(=O)(=O)N2CCC3(CC2)CN(c2nc(Cc4ccc(F)cc4)ns2)C3)cc1 [Cmpd058, N-(4-((2-(3-(4-fluorobenzyl)-1,2,4-thiadiazol-5-yl)-2,7-diazaspiro[3.5]nonan-7-yl)sulfonyl)phenyl)acetamide]	7.66	6.54	–	–	–
CS(=O)(=O)c1cccc(S(=O)(=O)N2CCC3(CC2)CN(c2nc(Cc4ccc(F)cc4)ns2)C3)c1 [Cmpd082, 3-(4-Fluorobenzyl)-5-(7-((3-(methylsulfonyl)phenyl)sulfonyl)-2,7-diazaspiro[3.5]nonan-2-yl)-1,2,4-thiadiazole]	7.47	6.32	–	–	–

The next compounds have a higher pEC50 (INS-1E cells) than those just listed; values first:

pEC50 (INS-1E cells)	SMILES	pEC50 (M17_3SYN cells)	body weight (db/db mice; 15 mg/kg PO, non-fasted body weight, FIG. 1A)	Fasted blood glucose levels (db/db mice; fasted, FIG. 1B)	% HbA1c levels (db/db mice; treated for 4 weeks, FIG. 1C)
7.74	O=S(=O)(c1cccs1)N1CCC2(CC1)CN(c1nc(Cc3ccc(F)cc3)ns1)C2 [Cmpd092, 3-(4-Fluorobenzyl)-5-(7-(thiophen-2-ylsulfonyl)-2,7-diazaspiro[3.5]nonan-2-yl)-1,2,4-thiadiazole]	6.21	–	–	–
7.92	COc1ccc(S(=O)(=O)N2CC3(CCN(S(=O)(=O)c4ccc(OC(F)F)cc4)CC3)C2)cc1 [Cmpd045, 7-((4-(Difluoromethoxy)phenyl)sulfonyl)-2-((4-methoxyphenyl)sulfonyl)-2,7-diazaspiro[3.5]nonane]	8.70	decreased	significantly lower	reduced
